Several values for one entry are separate records, joined by “and”; a condition that tells them apart may be missing. Identical values can stand only once. Like-named read-outs stand apart in the source and are kept apart here.
Experiments:
[1] = biological target: T1, human GST-p38 kinase alpha (Homo sapiens, UniProt Q16539); assay: p38 kinase in vitro assay, second format, phosphorylation of EGFRP with 33P-ATP; format: biochemical; details: read-out: p38α Kinase Assay IC50
T1 construct: The coding region of the human p38a cDNA was obtained by PCR-amplification from RNA isolated from the human monocyte cell line THP.1; made in house; host or cells: E. coli DH10B
T1 sequence (Q16539 whole entry): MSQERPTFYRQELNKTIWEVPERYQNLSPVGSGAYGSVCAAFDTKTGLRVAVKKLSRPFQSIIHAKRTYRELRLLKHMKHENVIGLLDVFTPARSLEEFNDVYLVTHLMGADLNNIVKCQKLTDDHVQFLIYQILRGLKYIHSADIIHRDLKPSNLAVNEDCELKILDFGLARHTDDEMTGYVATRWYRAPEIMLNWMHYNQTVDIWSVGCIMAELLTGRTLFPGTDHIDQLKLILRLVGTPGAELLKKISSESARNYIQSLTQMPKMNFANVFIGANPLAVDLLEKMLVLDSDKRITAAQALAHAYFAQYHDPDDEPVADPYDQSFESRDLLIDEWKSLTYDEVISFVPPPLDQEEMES
How it was run: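 Activated human GST-p38α (pre-activated with GST-MKK6, 1 h, 30 °C) phosphorylates EGFR 21-mer peptide (200 μM) with 50 μM ATP plus γ-33P-ATP, pH 7.5, 60 min at room temperature. Unreacted ATP removed by AG 1×8 resin; supernatant scintillation-counted.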

human TNF = assay: TNF inhibition: human whole blood assay; format: cell-based; details: Homo sapiens, LPS, read-out: TNF Inhibition-Human Whole Blood Assay
TNF-α = assay: Rat assay: LPS-challenged rats, serum TNF-α by ELISA; format: in vivo; details: Rattus norvegicus, po; for inhibition in vivo at 5 mg/kg: Table 10, dose 5.0 mg/kg; for inhibition in vivo at 5 mg/kg / inhibition in vivo at 3 mg/kg / inhibition in vivo at 1 mg/kg: read-out: Rat LPS Assay % Inhibition; for inhibition in vivo at 3 mg/kg: Table 8, dose 3.0 mg/kg; for inhibition in vivo at 1 mg/kg: Table 10, dose 1.0 mg/kg
TNF alpha = assay: Mouse model of LPS-induced TNF alpha production; format: in vivo; details: 30 mpk oral gavage
Method: TNF alpha was induced in 10-12 week old BALB/c female mice by tail vein injection with 100 ng lipopolysaccharide (from S. Typhosa) in 0.2 ml saline. One hour later mice were bled from the retroorbital sinus and TNF concentrations in serum from clotted blood were quantified by ELISA.
Efficacy was determined at each time point as percent inhibition of serum TNF levels relative to LPS injected mice that received vehicle only
wherein in the dose is milligram per kilogram (mpk) administered by oral gavage and the predose time indicates the number of hours before LPS challenge when the compound is administered.

human p38 kinase alpha = biological target: T2, human p38 kinase alpha (Homo sapiens, UniProt Q16539); assay: p38 kinase in vitro assay, phosphorylation of biotinylated PHAS-I with gamma 32P-ATP; format: biochemical; details: read-out: P38 alpha kinase IC50
T2 construct: The coding region of the human p38a cDNA was obtained by PCR-amplification from RNA isolated from the human monocyte cell line THP.1; GST (N); made in house; host or cells: E. coli DH10B
T2 sequence (Q16539 whole entry): as above
How it was run: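 MKK6-activated human p38α phosphorylates biotinylated PHAS-I with γ-32P-ATP in 25 mM HEPES pH 7.5, 10 mM Mg acetate, 50 μM unlabeled ATP, 1% DMSO, 30 °C for 1 h or overnight. Compounds at 100–0.001 μM (10-fold steps, triplicate); substrate captured on streptavidin filter plates and counted by scintillation.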

CN1CCN(c2n[nH]c(-c3ccc(I)cc3)c2-c2ccncc2)CC1 [Example A-417, 1-[5-(4-iodophenyl)-4-(4-pyridinyl)-1H-pyrazol-3-yl]-4-methylpiperazine]
IC50 ([1]; Table 10, 10% DMSO, @ 1.0 hour): 0.19 µM
IC50 (human TNF; Table 10, human whole blood): 12 µM
inhibition in vivo at 5 mg/kg (TNF-α): 40%
inhibition in vivo at 20 mg/kg (TNF-α; Table 10, dose 20.0 mg/kg): 70%
melting point: 265.2 to 265.8 °C

[O-][S+](c1[nH]nc(-c2ccc(Cl)cc2)c1-c1ccncc1)C1CCNCC1 (stereo not drawn) [Example A-482]
IC50 ([1]; Table 10, 10% DMSO, @ 1.0 hour): 1.62 µM
IC50 (human TNF; Table 10, human whole blood): 0.69 µM
inhibition in vivo at 20 mg/kg (TNF-α; Table 10, dose 20.0 mg/kg): 15%
melting point: 189.1 to 190.8 °C

COc1ccccc1Nc1nccc(-c2cn[nH]c2-c2ccc(F)cc2)n1 [Example A-326, 4-[3-(4-fluorophenyl)-1H-pyrazol-4-yl]-N-(2-methoxyphenyl)-2-pyrimidinamine]
IC50 ([1]; Table 8, 10% DMSO): 0.97 µM
IC50 (human TNF; Table 8, human whole blood): > 25 µM
inhibition in vivo at 10 mg/kg (TNF-α; Table 8, dose 10.0 mg/kg): 0%
melting point: 265 °C (dec.)

COc1ccc(-c2[nH]nc(N3CCN(C)CC3)c2-c2ccncc2)cc1Cl [Example A-413]
IC50 ([1]; Table 10, 10% DMSO, @ 1.0 hour): 0.91 µM
IC50 (human TNF; Table 10, human whole blood): 6.51 µM
inhibition in vivo at 5 mg/kg (TNF-α): 45%
inhibition in vivo at 20 mg/kg (TNF-α; Table 10, dose 20.0 mg/kg): 85%
melting point: 272.7 to 276.4 °C

CN1CCN(c2[nH]nc(-c3ccc(C(C)(C)C)cc3)c2-c2ccncc2)CC1 [Example A-414, 1-[5-(4-tert-butylphenyl)-4-(4-pyridinyl)-1H-pyrazol-3-yl]-4-methylpiperazine]
IC50 ([1]; Table 10, 10% DMSO, @ 1.0 hour): 9.51 µM
IC50 (human TNF; Table 10, human whole blood): 11.2 µM
inhibition in vivo at 5 mg/kg (TNF-α): 3%
inhibition in vivo at 20 mg/kg (TNF-α; Table 10, dose 20.0 mg/kg): 14%
melting point: 243.6 to 244.3 °C

CN1CCN(c2[nH]nc(-c3cccc(Br)c3)c2-c2ccncc2)CC1 [Example A-409, 1-[5-(3-bromophenyl)-4-(4-pyridinyl)-1H-pyrazol-3-yl]-4-methylpiperazine]
IC50 ([1]; Table 10, 10% DMSO, @ 1.0 hour): 0.21 µM
IC50 (human TNF; Table 10, human whole blood): 5.27 µM
inhibition in vivo at 5 mg/kg (TNF-α): 41%
inhibition in vivo at 20 mg/kg (TNF-α; Table 10, dose 20.0 mg/kg): 89%
melting point: 222.5 to 223.4 °C

O=C(CSc1[nH]nc(-c2ccc(Cl)cc2)c1-c1ccncc1)N1CCOCC1 [Example A-476]
IC50 ([1]; Table 10, 10% DMSO, @ 1.0 hour): 1.01 µM
IC50 (human TNF; Table 10, human whole blood): 0.97 µM
inhibition in vivo at 20 mg/kg (TNF-α; Table 10, dose 20.0 mg/kg): 35%
melting point: 215.4 to 215.5 °C

C#CCNC(=O)Cn1nc(-c2ccc(F)cc2)c(-c2ccncc2)c1C [Example B-2310]
Mouse LPS Model % TNF inhib @ dose @ predose time (TNF alpha): 50% @ 30 mpk @ -6h

Cc1cc(-c2n[nH]c(N3CCN(C)CC3)c2-c2ccncc2)ccc1Cl [Example A-407, 1-[5-(3-methyl-4-chlorophenyl)-4-(4-pyridinyl)-1H-pyrazol-3-yl]-4-methylpiperazine]
IC50 ([1]; Table 10, 10% DMSO, @ 1.0 hour): 0.18 µM
IC50 (human TNF; Table 10, human whole blood): 3.86 µM
inhibition in vivo at 5 mg/kg (TNF-α): 21%
inhibition in vivo at 20 mg/kg (TNF-α; Table 10, dose 20.0 mg/kg): 82%
melting point: 236.7 to 239.3 °C

Fc1ccc(-c2[nH]ncc2-c2ccnc(Nc3ccccc3F)n2)cc1 [Example A-325, N-(2-fluorophenyl)-4-[3-(4-fluorophenyl)-1H-pyrazol-4-yl]-2-pyrimidinamine]
IC50 ([1]; Table 8, 10% DMSO): < 0.1 µM
IC50 (human TNF; Table 8, human whole blood): 0.057 µM
inhibition in vivo at 3 mg/kg (TNF-α): 25%
inhibition in vivo at 30 mg/kg (TNF-α; Table 8, dose 30.0 mg/kg): 11%
melting point: 239 to 240 °C

Cc1cc(C(=O)C(=C2SCS2)c2ccncc2)ccc1Cl [Example A-391, 1-(4-chloro-3-methylphenyl)-2-1,3-dithietan-2-ylidene-2-pyridin-4-yl-ethanone]
IC50 ([1]; Table 10, 10% DMSO, @ 1.0 hour): 4.83 µM
IC50 (human TNF; Table 10, human whole blood): > 25 µM
inhibition in vivo at 20 mg/kg (TNF-α; Table 10, dose 20.0 mg/kg): 53%
melting point: 164 to 165 °C

N#CCSc1[nH]nc(-c2ccc(Cl)cc2)c1-c1ccncc1 [Example A-456]
IC50 ([1]; Table 10, 10% DMSO, @ 1.0 hour): 0.12 µM
IC50 (human TNF; Table 10, human whole blood): 0.98 µM
inhibition in vivo at 1 mg/kg (TNF-α): 36%
inhibition in vivo at 5 mg/kg (TNF-α): 48%
inhibition in vivo at 20 mg/kg (TNF-α; Table 10, dose 20.0 mg/kg): 53%
melting point: 230 to 230.5 °C

Cc1ccccc1-c1n[nH]c(N2CCN(C)CC2)c1-c1ccncc1 [Example A-408, 1-[5-(2-tolyl)-4-(4-pyridinyl)-1H-pyrazol-3-yl]-4-methylpiperazine]
IC50 ([1]; Table 10, 10% DMSO, @ 1.0 hour): 5.59 µM
IC50 (human TNF; Table 10, human whole blood): 11.7 µM
inhibition in vivo at 5 mg/kg (TNF-α): 20%
inhibition in vivo at 20 mg/kg (TNF-α; Table 10, dose 20.0 mg/kg): 49%
melting point: 244 to 244.2 °C

CN1CCC(Oc2[nH]nc(-c3ccc(Cl)cc3)c2-c2ccncc2)CC1 [Example A-448, 3-(4-chlorophenyl)-5-[(1-methylpiperidin-4-yl)-oxy]-4-pyridin-4-yl-1H-pyrazole]
IC50 ([1]; Table 10, 10% DMSO, @ 1.0 hour): 0.084 µM
IC50 (human TNF; Table 10, human whole blood): 0.12 µM
inhibition in vivo at 5 mg/kg (TNF-α): 73%
inhibition in vivo at 20 mg/kg (TNF-α; Table 10, dose 20.0 mg/kg): 97%
melting point: 255.9 to 256.8 °C

CC(C)(C)OC(=O)N1CCC(Oc2[nH]nc(-c3ccc(Cl)cc3)c2-c2ccncc2)CC1 [Example A-441]
IC50 ([1]; Table 10, 10% DMSO, @ 1.0 hour): 1.21 µM
IC50 (human TNF; Table 10, human whole blood): > 25 µM
inhibition in vivo at 5 mg/kg (TNF-α): 14%
inhibition in vivo at 20 mg/kg (TNF-α; Table 10, dose 20.0 mg/kg): 62%
melting point: 230.1 to 231.8 °C

Clc1ccc(-c2n[nH]c(SC3CCNCC3)c2-c2ccncc2)cc1 [Example A-459]
IC50 ([1]; Table 10, 10% DMSO, @ 1.0 hour): 0.027 µM
IC50 (human TNF; Table 10, human whole blood): 0.26 µM
inhibition in vivo at 1 mg/kg (TNF-α): 0%
inhibition in vivo at 5 mg/kg (TNF-α): 54%
inhibition in vivo at 20 mg/kg (TNF-α; Table 10, dose 20.0 mg/kg): 80%
melting point: 211.1 to 211.2 °C

CC(Oc1ccccc1)C(=O)NCc1[nH]nc(-c2ccc(F)cc2)c1-c1ccncc1 (stereo not drawn) [Example B-0087]
IC50 (human p38 kinase alpha): 0.55 µM
inhibition in vivo at 30 mg/kg (TNF alpha; Mus musculus, -6h before LPS, read-out: Mouse LPS Model % TNF inhib @ dose @ predose time): 38%

Clc1ccc(-c2n[nH]c(SCC3OCCO3)c2-c2ccncc2)cc1 [Example A-473]
IC50 ([1]; Table 10, 10% DMSO, @ 1.0 hour): 0.17 µM
IC50 (human TNF; Table 10, human whole blood): 0.56 µM
inhibition in vivo at 20 mg/kg (TNF-α; Table 10, dose 20.0 mg/kg): 58%
melting point: 197 to 198.2 °C

Nc1[nH]nc(-c2ccc(Cl)cc2)c1-c1ccncc1 [Example A-427, 5-amino-3-(4-chlorophenyl)-4-(pyridin-4-yl)pyrazole]
IC50 ([1]; Table 10, 10% DMSO, @ 1.0 hour): 0.19 µM
IC50 (human TNF; Table 10, human whole blood): 24.1 µM
inhibition in vivo at 5 mg/kg (TNF-α): 56%
inhibition in vivo at 20 mg/kg (TNF-α; Table 10, dose 20.0 mg/kg): 77%
melting point: > 300 °C

CSc1[nH]nc(-c2ccc(Cl)cc2)c1-c1ccncc1 [Example A-435]
IC50 ([1]; Table 10, 10% DMSO, @ 1.0 hour): 0.35 µM
IC50 (human TNF; Table 10, human whole blood): > 25 µM
inhibition in vivo at 1 mg/kg (TNF-α): 10%
inhibition in vivo at 5 mg/kg (TNF-α): 0%
inhibition in vivo at 20 mg/kg (TNF-α; Table 10, dose 20.0 mg/kg): 14%
melting point: 250.2 °C

CN1CCN(c2n[nH]c(-c3cccc(Cl)c3)c2-c2ccncc2)CC1 [Example A-327, 1-[5-(3-chlorophenyl)-4-(4-pyridinyl)-1-H-pyrazol-3-yl]-4-methylpiperazine]
IC50 ([1]; Table 8, 10% DMSO): 0.15 µM
IC50 (human TNF; Table 8, human whole blood): 0.18 µM
inhibition in vivo at 20 mg/kg (TNF-α; Table 8, dose 20.0 mg/kg): 83%
melting point: 229 to 231 °C

Clc1ccc(-c2n[nH]c(N3CCN(C4CC4)CC3)c2-c2ccncc2)cc1 [Example A-322, 1-[5-(4-chlorophenyl)-4-(4-pyridinyl)-1H-pyrazol-3-yl)-4-cyclopropylpiperazine]
IC50 ([1]; Table 8, 10% DMSO): 0.15 µM and 0.25 µM
IC50 (human TNF; Table 8, human whole blood): 4.2 µM
inhibition in vivo at 3 mg/kg (TNF-α): 51.5%
melting point: 264 to 265 °C

— patent publication US6525059B1, “Substituted pyrazoles as p38 kinase inhibitors” (G. D. Searle & Company, priority 1998, dated 2003)
